Read-outs that look alike come from different tables or passages of the source.
Assays:
GCN2 kinase = GCN2 kinase (Homo sapiens, UniProt Q9P2K8); experiment: GCN2 enzyme inhibition assay (Transcreener ADP2 fluorescence polarization); assay type: biochemical; settings: 280 μM ATP
How it was run: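 FP detection of ADP (antibody plus Alexa633 tracer) after a 1 h, 25 °C kinase reaction. Enzyme 4 nM, ATP 280 μM, (RS)7 peptide 200 μM, Tris pH 7.5 buffer with MgCl2 and DTT. Percent inhibition fitted by non-linear tight-binding algorithm for IC50 and Ki(app).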

[1] = target: intracellular GCN2 (phosphorylation of the GCN2 substrate eIF2α) (Homo sapiens, UniProt Q9P2K8); experiment: GCN2 cellular inhibition assay (AlphaScreen SureFire P-eIF2α Ser51, borrelidin-treated U2OS cells); assay type: cell-based
Sequence of intracellular GCN2 (phosphorylation of the GCN2 substrate eIF2α) (Q9P2K8 whole entry): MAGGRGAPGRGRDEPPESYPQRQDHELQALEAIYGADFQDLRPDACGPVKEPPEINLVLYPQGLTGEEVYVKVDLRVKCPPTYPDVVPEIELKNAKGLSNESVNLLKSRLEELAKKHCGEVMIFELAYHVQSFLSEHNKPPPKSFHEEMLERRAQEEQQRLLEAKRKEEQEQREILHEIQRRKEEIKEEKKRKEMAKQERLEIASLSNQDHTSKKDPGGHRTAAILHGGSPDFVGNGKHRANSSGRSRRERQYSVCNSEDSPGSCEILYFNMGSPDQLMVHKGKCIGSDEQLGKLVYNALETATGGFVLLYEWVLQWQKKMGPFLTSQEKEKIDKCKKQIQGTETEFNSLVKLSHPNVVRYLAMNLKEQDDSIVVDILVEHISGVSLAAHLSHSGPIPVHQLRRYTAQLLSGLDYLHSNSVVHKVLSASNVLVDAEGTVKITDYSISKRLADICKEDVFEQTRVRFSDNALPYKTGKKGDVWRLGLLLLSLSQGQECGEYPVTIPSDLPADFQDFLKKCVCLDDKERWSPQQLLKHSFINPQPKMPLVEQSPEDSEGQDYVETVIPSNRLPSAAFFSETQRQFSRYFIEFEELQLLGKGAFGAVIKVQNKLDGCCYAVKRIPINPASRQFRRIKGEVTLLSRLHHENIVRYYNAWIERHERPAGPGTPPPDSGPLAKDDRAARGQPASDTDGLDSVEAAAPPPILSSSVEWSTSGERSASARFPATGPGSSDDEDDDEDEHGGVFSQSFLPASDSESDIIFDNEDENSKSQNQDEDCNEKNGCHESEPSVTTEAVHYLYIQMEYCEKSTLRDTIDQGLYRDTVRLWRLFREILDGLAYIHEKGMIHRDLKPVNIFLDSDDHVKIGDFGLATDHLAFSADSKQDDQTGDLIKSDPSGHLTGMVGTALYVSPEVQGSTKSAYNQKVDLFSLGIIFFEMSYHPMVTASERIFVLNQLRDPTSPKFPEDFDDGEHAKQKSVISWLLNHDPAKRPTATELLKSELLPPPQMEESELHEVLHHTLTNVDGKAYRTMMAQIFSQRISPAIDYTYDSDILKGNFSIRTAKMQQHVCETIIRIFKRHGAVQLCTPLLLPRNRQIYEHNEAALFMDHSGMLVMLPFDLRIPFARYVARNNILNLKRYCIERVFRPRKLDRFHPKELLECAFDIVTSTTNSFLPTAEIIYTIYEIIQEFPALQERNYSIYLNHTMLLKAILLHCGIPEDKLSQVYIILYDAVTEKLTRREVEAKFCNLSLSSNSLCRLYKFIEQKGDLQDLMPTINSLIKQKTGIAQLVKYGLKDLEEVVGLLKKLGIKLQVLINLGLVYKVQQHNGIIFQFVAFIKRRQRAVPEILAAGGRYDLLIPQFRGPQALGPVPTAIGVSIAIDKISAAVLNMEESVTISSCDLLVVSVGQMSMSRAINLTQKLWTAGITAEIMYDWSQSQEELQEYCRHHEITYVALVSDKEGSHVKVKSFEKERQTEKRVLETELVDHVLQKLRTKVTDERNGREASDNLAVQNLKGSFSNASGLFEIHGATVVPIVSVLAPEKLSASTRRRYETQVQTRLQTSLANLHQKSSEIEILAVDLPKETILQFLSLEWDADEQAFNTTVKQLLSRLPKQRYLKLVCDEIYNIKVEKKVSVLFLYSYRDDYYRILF
How it was run: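 Phospho-eIF2α (Ser51) in lysates was quantified by AlphaScreen SureFire after a 1 h, 37 °C treatment of U2OS cells with 10 μM borrelidin and compound at 4-fold dilutions starting from 40 μM final. Inhibition expressed in percent against wells stimulated by borrelidin alone.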

[2] = compounds of Formula II, 4 nM GCN2 kinase
[3] = compounds of Formula II, biomarker assay, phosphorylated eIF2α Ser51 in borrelidin-treated U2OS cells
[4] = Enzyme activity for compounds of Formula IV, Ki(app), 25° C.
[5] = compounds of Formula IV, biomarker assay, phosphorylated eIF2α Ser51 in borrelidin-treated U2OS cells
[6] = compounds of Formula V, 4 nM GCN2 kinase
[7] = compounds of Formula V, U2OS cells, 10 μM borrelidin, 1 h, read-out: GCN2 Biomarker (IC50)

Sequence of GCN2 kinase (Q9P2K8 whole entry): as above

Ki (GCN2 kinase; [2]) [nM]	IC50 [1, 3] [µM]	SMILES	further results
10 to 1000	0.5 to 5	OC[C@@H]1CN(c2cc(-c3cnc4ccc(C(F)F)nn34)ncn2)CCO1 [II-9, (S)-(4-(6-(6-(Difluoromethyl)imidazo[1,2-b]pyridazin-3-yl)pyrimidin-4-yl)morpholin-2-yl)methanol]	
10 to 1000	> 5	CS(=O)(=O)N1CCCC2(CN(c3cc(-c4cnc5ccc(C(F)F)nn45)ncn3)CCO2)C1 (stereo not drawn) [II-288, 4-(6-(6-(Difluoromethyl)imidazo[1,2-b]pyridazin-3-yl)pyrimidin-4-yl)-8-(methylsulfonyl)-1-oxa-4,8-diazaspiro[5.5]undecane]	
10 to 1000	> 5	CC(=O)N1CCN(c2cc(-c3cnc4ccc(CO)nn34)ccn2)CC1 [II-185, 1-(4-(4-(6-(Hydroxymethyl)imidazo[1,2-b]pyridazin-3-yl)pyridin-2-yl)piperazin-1-yl)ethanone]	
10 to 1000	0.5 to 5	CS(=O)(=O)N1CCC2(CCCN(c3cc(-c4cnc5ccc(C(F)F)nn45)ncn3)C2)C1 (stereo not drawn) [II-56, 7-(6-(6-(Difluoromethyl)imidazo[1,2-b]pyridazin-3-yl)pyrimidin-4-yl)-2-(methylsulfonyl)-2,7-diazaspiro[4.5]decane]	
10 to 1000	0.5 to 5	FC(F)c1ccc2ncc(-c3cc(N4CCC(Cc5ccn[nH]5)CC4)ncn3)n2n1 [II-217, 3-(6-(4-((1H-Pyrazol-5-yl)methyl)piperidin-1-yl)pyrimidin-4-yl)-6-(difluoromethyl)imidazo[1,2-b]pyridazine]	
10 to 1000	> 5	NS(=O)(=O)N1CCCC2(CN(c3cc(-c4cnc5ccc(C(F)F)nn45)ncn3)C2)C1 [II-284, 2-(6-(6-(Difluoromethyl)imidazo[1,2-b]pyridazin-3-yl)pyrimidin-4-yl)-2,6-diazaspiro[3.5]nonane-6-sulfonamide]	
< 10	0.5 to 5	NS(=O)(=O)NCC1CCCN(c2cc(-c3cnc4ccc(C(F)F)nn34)ncn2)C1 (single isomer, unassigned) [II-277]	

The remaining lines, values behind:

SMILES	Ki (GCN2 kinase; [2]) [nM]	IC50 [1, 3] [µM]	further results
CC(=O)N1CCN(c2ccnc(-c3cnc4cnc(C(F)(F)F)cn34)n2)CC1 [IV-24, 1-(4-(2-(6-(Trifluoromethyl)imidazo[1,2-a]pyrazin-3-yl)pyrimidin-4-yl)piperazin-1-yl)ethan-1-one]			Ki (GCN2 kinase; [4]): 100 to 1000 nM; IC50 [1, 5]: > 5 µM
CC1CN(c2cc(F)cc(-c3cnc4cnc(C(F)(F)F)cn34)n2)C(C)C(c2cn[nH]c2)N1 (stereo not drawn) [IV-690, 3-(6-(2,5-Dimethyl-3-(1H-pyrazol-4-yl)piperazin-1-yl)-4-fluoropyridin-2-yl)-6-(trifluoromethyl)imidazo[1,2-a]pyrazine]			Ki (GCN2 kinase; [4]): < 10 nM; IC50 [1, 5]: 0.5 to 5 µM
FC(F)(F)c1cn2c(-c3nccc(N4CCC(C5CCOC5)C4)n3)cnc2cn1 (stereo not drawn) [IV-609, 3-(4-(3-(Tetrahydrofuran-3-yl)pyrrolidin-1-yl)pyrimidin-2-yl)-6-(trifluoromethyl)imidazo[1,2-a]pyrazine]			Ki (GCN2 kinase; [4]): 100 to 1000 nM; IC50 [1, 5]: > 5 µM
CS(=O)(=O)NCC1CCCN(c2cc(-c3cnc4ccc(C(F)F)nn34)cc(Cl)n2)C1 (stereo not drawn) [II-61, N-((1-(6-Chloro-4-(6-(difluoromethyl)imidazo[1,2-b]pyridazin-3-yl)pyridin-2-yl)piperidin-3-yl)methyl)methanesulfonamide]	< 10	0.5 to 5	
CC1CN(c2ccnc(-c3cnc4sc(C(F)F)cn34)n2)CC(CNS(C)(=O)=O)C1(F)F (stereo not drawn) [Compound V-14, N-[[1-[2-[2-(Difluoromethyl)imidazo[2,1-b]thiazol-5-yl]pyrimidin-4-yl]-4,4-difluoro-5-methyl-3-piperidyl]methyl]methanesulfonamide]			Ki (GCN2 kinase; [6]): 10 to 100 nM; IC50 [1, 7]: 0.5 to 5 µM
O=S1(=O)CCN(c2cc(-c3cnc4ccc(C(F)F)nn34)ncn2)CC1 [II-295, 4-(6-(6-(Difluoromethyl)imidazo[1,2-b]pyridazin-3-yl)pyrimidin-4-yl)thiomorpholine 1,1-dioxide]	> 1000	> 5	
CS(=O)(=O)N1CCC2(CCCCN2c2cc(-c3cnc4ccc(C(F)F)nn34)ncn2)C1 (stereo not drawn) [II-256, 6-(6-(6-(Difluoromethyl)imidazo[1,2-b]pyridazin-3-yl)pyrimidin-4-yl)-2-(methylsulfonyl)-2,6-diazaspiro[4.5]decane]	10 to 1000	> 5	
CC1C(CNS(C)(=O)=O)C(F)(F)C(C)CN1c1cc(-c2cnc3ccc(C(F)F)nn23)ncn1 (single isomer, unassigned) [II-470, N-((1-(6-(6-(Difluoromethyl)imidazo[1,2-b]pyridazin-3-yl)pyrimidin-4-yl)-4,4-difluoro-2,5-dimethylpiperidin-3-yl)methyl)methanesulfonamide]	10 to 1000	0.5 to 5	
CP(C)(=O)C1CC(c2cn[nH]c2)CN(c2ccnc(-c3cnc4cnc(C(F)(F)F)cn34)n2)C1 (single isomer, unassigned) [IV-633, (5-(1H-Pyrazol-4-yl)-1-(2-(6-(trifluoromethyl)imidazo[1,2-a]pyrazin-3-yl)pyrimidin-4-yl)piperidin-3-yl)dimethylphosphine oxide]			Ki (GCN2 kinase; [4]): 10 to 100 nM; IC50 [1, 5]: > 5 µM
CS(=O)(=O)N1CCCC2(CN(c3cc(-c4cnc5ccc(C(F)F)nn45)ncn3)C2)C1 [II-279, 6-(Difluoromethyl)-3-(6-(6-(methylsulfonyl)-2,6-diazaspiro[3.5]nonan-2-yl)pyrimidin-4-yl)imidazo[1,2-b]pyridazine]	10 to 1000	> 5	
C[C@@H]1CC(N=S(C)(C)=O)CN(c2cc(-c3cnc4ccc(C(F)F)nn34)ncn2)C1 (single isomer, unassigned) [II-541]	< 10	< 0.5	
NC(=O)[C@H]1CCCN(c2ccnc(-c3cnc4sc(C(F)(F)F)cn34)n2)C1 [Compound V-10, (3S)-1-[2-[2-(Trifluoromethyl)imidazo[2,1-b]thiazol-5-yl]pyrimidin-4-yl]piperidine-3-carboxamide]			Ki (GCN2 kinase; [6]): < 10 nM; IC50 [1, 7]: < 0.5 µM
CS(=O)(=O)NCC1CCCN(c2cc(-c3cnc4ccc(C(F)F)nn34)cc(N3CC(O)C3)n2)C1 (stereo not drawn) [II-85, N-((1-(4-(6-(Difluoromethyl)imidazo[1,2-b]pyridazin-3-yl)-6-(3-hydroxyazetidin-1-yl)pyridin-2-yl)piperidin-3-yl)methyl)methanesulfonamide]	< 10	0.5 to 5	
C[C@H]1[C@@H](CO)CCCN1c1cc(-c2cnc3ccc(C(F)F)nn23)ncn1 (single isomer, unassigned) [II-392]	10 to 1000	0.5 to 5	
OCCC1CN(c2cc(-c3cnc4ccc(C(F)(F)F)nn34)ncn2)CCO1 (stereo not drawn) [II-500, 2-(4-(6-(6-(Trifluoromethyl)imidazo[1,2-b]pyridazin-3-yl)pyrimidin-4-yl)morpholin-2-yl)ethan-1-ol]	10 to 1000	> 5	
CN(CC1CCCN(c2cc(-c3cnc4ccc(C(F)F)nn34)ncn2)C1)S(N)(=O)=O (stereo not drawn) [II-311, 1-((1-(6-(6-(Difluoromethyl)imidazo[1,2-b]pyridazin-3-yl)pyrimidin-4-yl)piperidin-3-yl)methyl)-1-methylsulfuric diamide]	< 10	< 0.5	
Cc1cnc(N2CCCC(CNS(C)(=O)=O)C2)cc1-c1cnc2ccc(C(F)F)nn12 (stereo not drawn) [II-733, N-((1-(4-(6-(difluoromethyl)imidazo[1,2-b]pyridazin-3-yl)-5-methylpyridin-2-yl)piperidin-3-yl)methyl)methanesulfonamide]	> 1000	> 5	
CC1CN(c2ccnc(-c3cnc4cnc(C(F)(F)F)cn34)n2)C(C)C(c2cn[nH]c2)O1 (stereo not drawn) [IV-416, 3,6-Dimethyl-2-(1H-pyrazol-4-yl)-4-(2-(6-(trifluoromethyl)imidazo[1,2-a]pyrazin-3-yl)pyrimidin-4-yl)morpholine]			Ki (GCN2 kinase; [4]): < 10 nM; IC50 [1, 5]: 0.5 to 5 µM
C[C@@H]1CN(c2cc(-c3cnc4ccc(C(F)F)nn34)ncn2)CC(C(N)=O)O1 (stereo partly drawn) [II-201, (6R)-4-(6-(6-(Difluoromethyl)imidazo[1,2-b]pyridazin-3-yl)pyrimidin-4-yl)-6-methylmorpholine-2-carboxamide]	10 to 1000	> 5	
C[C@H]1CN(c2ccnc(-c3cnc4cnc(C(F)F)cn34)n2)C[C@@H](CNS(C)(=O)=O)C1(F)F [IV-21, N-(((3S,5S)-1-(2-(6-(Difluoromethyl)imidazo[1,2-a]pyrazin-3-yl)pyrimidin-4-yl)-4,4-difluoro-5-methylpiperidin-3-yl)methyl)methanesulfonamide]			Ki (GCN2 kinase; [4]): 100 to 1000 nM; IC50 [1, 5]: > 5 µM
CC1(O)CC(CNS(C)(=O)=O)CN(c2cc(-c3cnc4ccc(C(F)F)nn34)ncn2)C1 (single isomer, unassigned) [II-5, N-((1-(6-(6-(Difluoromethyl)imidazo[1,2-b]pyridazin-3-yl)pyrimidin-4-yl)-5-hydroxy-5-methylpiperidin-3-yl)methyl)methanesulfonamide]	10 to 1000	> 5	
CS(=O)(=O)C1CCCN(c2cc(-c3cnc4ccc(C(F)F)nn34)ncn2)C1 (stereo not drawn) [II-19, 6-(Difluoromethyl)-3-(6-(3-(methylsulfonyl)piperidin-1-yl)pyrimidin-4-yl)imidazo[1,2-b]pyridazine]	10 to 1000	0.5 to 5	
NCC(=O)Nc1cccc(-c2ccnc(-c3cnc4cnc(C(F)F)cn34)n2)c1 [IV-167, 2-Amino-N-(3-(2-(6-(difluoromethyl)imidazo[1,2-a]pyrazin-3-yl)pyrimidin-4-yl)phenyl)acetamide]			Ki (GCN2 kinase; [4]): 100 to 1000 nM; IC50 [1, 5]: > 5 µM

From patent publication US10988477B2 (Merck Patent GmbH, priority 2018, dated 2021)
